From PubChem BioAssay (NCI)
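Five concentrations, 48 hours, 96-well plates. At the TGI there is no net growth.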

Experiments:
Assay in all cases: NCI anticancer screen, dose series, 48 h
[1] = test system: HOP-92 NSCLC
[2] = test system: RXF-631 renal
[3] = test system: SF-539 CNS
[4] = test system: HL-60(TB) leukemia
[5] = test system: SF-295 CNS
[6] = test system: HCT-15 colon
[7] = test system: MOLT-4 leukemia
[8] = test system: M14 melanoma
[9] = test system: HCT-116 colon
[10] = test system: UO-31 renal
[11] = test system: MALME-3M melanoma
[12] = test system: SNB-78 CNS
[13] = test system: M19-MEL melanoma
[14] = test system: NCI-H522 lung
[15] = test system: SW-620 colon
[16] = test system: OVCAR-4 ovarian
[17] = test system: SF-268 CNS
[18] = test system: K-562 leukemia
[19] = test system: LOX IMVI melanoma
[20] = test system: COLO 205 colon
[21] = test system: SNB-75 CNS
[22] = test system: SK-MEL-5 melanoma
[23] = test system: BT-549 breast
[24] = test system: SNB-19 CNS
[25] = test system: NCI-H226 lung
[26] = test system: XF 498 CNS
[27] = test system: RPMI-8226 leukemia
[28] = test system: PC-3 prostate
[29] = test system: A549 NSCLC
[30] = test system: SK-MEL-28 melanoma
[31] = test system: T-47D breast
[32] = test system: DU-145 prostate
[33] = test system: SK-OV-3 ovarian
[34] = test system: OVCAR-5 ovarian
[35] = test system: UACC-257 melanoma
[36] = test system: HOP-18 NSCLC
[37] = test system: UACC-62 melanoma
[38] = test system: RXF 393 renal
[39] = test system: OVCAR-8 ovarian
[40] = test system: DMS 114 small cell lung
[41] = test system: ACHN renal
[42] = test system: SK-MEL-2 melanoma
[43] = test system: MDA-MB-435
[44] = test system: EKVX NSCLC
[45] = test system: HS 578T breast
[46] = test system: LXFL 529 NSCLC
[47] = test system: NCI-H460 lung
[48] = test system: 786-0 renal
[49] = test system: NCI-H23 lung
[50] = test system: CCRF-CEM leukemia
[51] = test system: SN12C renal
[52] = test system: A498 renal
[53] = test system: KM12 colon
[54] = test system: MDA-N
[55] = test system: DLD-1 colon
[56] = test system: CAKI-1 renal
[57] = test system: DMS 273 small cell lung
[58] = test system: U251 CNS
[59] = test system: MCF7 breast
[60] = test system: HCC-2998 colon
[61] = test system: TK-10 renal
[62] = test system: OVCAR-3 ovarian
[63] = test system: KM20L2 colon
[64] = test system: IGROV1 ovarian
[65] = test system: HT29 colon
[66] = test system: HOP-62 NSCLC
[67] = test system: SR leukemia

O=c1c(NO)c([N+](=O)[O-])cnn1-c1ccccc1
TGI [1]: 13.9 µM | TGI [2]: 6.18 µM | TGI [3]: 28.9 µM | TGI [4]: 3.14 µM | TGI [5]: 27 µM | TGI [6]: 11.6 µM | TGI [7]: 10.5 µM | TGI [8]: 4.09 µM | TGI [9]: 6.25 µM | TGI [10]: 12.9 µM | TGI [11]: 12 µM | TGI [12]: 39.2 µM | TGI [13]: 12.2 µM | TGI [14]: 4.86 µM | TGI [15]: 3.73 µM | TGI [16]: 6.95 µM | TGI [17]: 34.2 µM | TGI [18]: 1.86 µM | TGI [19]: 3.66 µM | TGI [20]: 9.85 µM | TGI [21]: 28.4 µM | TGI [22]: 12.4 µM | TGI [23]: 2.93 µM | TGI [24]: 26.1 µM | TGI [25]: 16.5 µM | TGI [26]: 8.38 µM | TGI [27]: 34 µM | TGI [28]: 2.97 µM | TGI [29]: 36.2 µM | TGI [30]: 8.87 µM | TGI [31]: 3.79 µM | TGI [32]: 27.6 µM | TGI [33]: 13.3 µM | TGI [34]: 14 µM | TGI [35]: 13.4 µM | TGI [36]: 37.5 µM | TGI [37]: 10.8 µM | TGI [38]: 12.3 µM | TGI [39]: 7.48 µM | TGI [40]: 35.3 µM | TGI [41]: 15.9 µM | TGI [42]: 31.4 µM | TGI [43]: 3.34 µM | TGI [44]: 29.8 µM | TGI [45]: 11 µM | TGI [46]: 3.17 µM | TGI [47]: 13.1 µM | TGI [48]: 12.7 µM | TGI [49]: 13.2 µM | TGI [50]: 2.8 µM | TGI [51]: 7.59 µM | TGI [52]: 50 µM | TGI [53]: 23.5 µM | TGI [54]: 4.02 µM | TGI [55]: 10.2 µM | TGI [56]: 11.2 µM | TGI [57]: 13.4 µM | TGI [58]: 8.07 µM | TGI [59]: 16.5 µM | TGI [60]: 9.86 µM | TGI [61]: 33.2 µM | TGI [62]: 5.76 µM | TGI [63]: 18.3 µM | TGI [64]: 41.1 µM | TGI [65]: 6.14 µM | TGI [66]: 23.1 µM

NC(=O)N/N=C(/Cc1nc2ccc(C(=O)c3ccccc3)cc2[nH]c1=O)C(=O)Nc1ccc(C(F)(F)F)cc1[N+](=O)[O-]
TGI [1]: > 100 µM | TGI [2]: > 100 µM | TGI [3]: > 100 µM | TGI [4]: > 100 µM | TGI [5]: > 100 µM | TGI [6]: > 100 µM | TGI [7]: > 100 µM | TGI [8]: > 100 µM | TGI [9]: > 100 µM | TGI [10]: > 100 µM | TGI [11]: > 100 µM | TGI [12]: > 100 µM | TGI [13]: > 100 µM | TGI [14]: 76.3 µM | TGI [15]: > 100 µM | TGI [16]: > 100 µM | TGI [17]: > 100 µM | TGI [18]: > 100 µM | TGI [19]: > 100 µM | TGI [20]: > 100 µM | TGI [21]: 97.3 µM | TGI [22]: > 100 µM | TGI [24]: > 100 µM | TGI [26]: > 100 µM | TGI [27]: > 100 µM | TGI [29]: > 100 µM | TGI [30]: > 100 µM | TGI [33]: > 100 µM | TGI [34]: > 100 µM | TGI [35]: > 100 µM | TGI [67]: > 100 µM | TGI [36]: > 100 µM | TGI [37]: > 100 µM | TGI [39]: > 100 µM | TGI [40]: > 100 µM | TGI [41]: > 100 µM | TGI [42]: > 100 µM | TGI [44]: > 100 µM | TGI [46]: > 100 µM | TGI [47]: > 100 µM | TGI [48]: > 100 µM | TGI [49]: > 100 µM | TGI [50]: > 100 µM | TGI [51]: > 100 µM | TGI [52]: > 100 µM | TGI [53]: > 100 µM | TGI [55]: > 100 µM | TGI [56]: > 100 µM | TGI [57]: > 100 µM | TGI [58]: > 100 µM | TGI [60]: > 100 µM | TGI [61]: > 100 µM | TGI [62]: > 100 µM | TGI [63]: > 100 µM | TGI [64]: > 100 µM | TGI [65]: > 100 µM | TGI [66]: > 100 µM

CC(CNCCCNCCNCCCNCO)[N+](=O)[O-] (centres undefined)
TGI [1]: 8.57 µM | TGI [2]: 30.3 µM | TGI [3]: 29.2 µM | TGI [4]: 19.1 µM | TGI [5]: > 100 µM | TGI [6]: 23.2 µM | TGI [7]: 30.4 µM | TGI [8]: 23.6 µM | TGI [9]: 22.7 µM | TGI [10]: 32.3 µM | TGI [11]: 4.22 µM | TGI [12]: 48.3 µM | TGI [15]: 12.2 µM | TGI [16]: 27.9 µM | TGI [17]: 29.6 µM | TGI [18]: 19.6 µM | TGI [19]: 28.2 µM | TGI [20]: 19.3 µM | TGI [21]: 35.3 µM | TGI [22]: 29.9 µM | TGI [24]: > 100 µM | TGI [26]: 29.9 µM | TGI [27]: 35 µM | TGI [29]: 57 µM | TGI [30]: 26.6 µM | TGI [33]: > 100 µM | TGI [34]: 26.8 µM | TGI [35]: 26.1 µM | TGI [67]: 28.4 µM | TGI [36]: 28.3 µM | TGI [37]: 29.9 µM | TGI [38]: 29.2 µM | TGI [39]: 27.9 µM | TGI [40]: 30.6 µM | TGI [41]: 30.3 µM | TGI [42]: 29.4 µM | TGI [44]: 29.9 µM | TGI [46]: 13.9 µM | TGI [47]: 32.3 µM | TGI [48]: 29.3 µM | TGI [49]: 28.6 µM | TGI [50]: 11.5 µM | TGI [51]: 28.4 µM | TGI [52]: 32.3 µM | TGI [53]: 29.7 µM | TGI [55]: 14.4 µM | TGI [56]: 18.6 µM | TGI [57]: 32.4 µM | TGI [58]: 29.5 µM | TGI [60]: 31 µM | TGI [61]: 8.6 µM | TGI [62]: 30.4 µM | TGI [63]: 31.7 µM | TGI [64]: 44.3 µM | TGI [65]: 41.7 µM | TGI [66]: > 100 µM
